Results: PMC10143822, “Structural Adaptation of the Single-Stranded DNA-Binding Protein C-Terminal to DNA Metabolizing Partners Guides Inhibitor Design” (Pharmaceutics, 2023)
Where a SMILES comes first, the peptide text is derived from it. Where no end group is shown, it is not given here. [ ]: non-standard residue; d: D form. Phe(4-CF3) = N[C@@H](Cc1ccc(C(F)(F)F)cc1)C(=O)O; β3hI = CC[C@H](C)[C@H](N)CC(=O)O; Tic = O=C(O)[C@@H]1Cc2ccccc2CN1; β3hF = N[C@H](CC(=O)O)Cc1ccccc1; 2Thi = N[C@@H](Cc1cccs1)C(=O)O; Tle = CC(C)(C)[C@H](N)C(=O)O; β3hD = NC(CC(=O)O)CC(=O)O

What was measured:
ExoI [1] = biological target: T1, ExoI (Escherichia coli, UniProt P04995); assay: biochemical; assay type: binding, E. coli
T1 construct: His-tag (cleaved yes); host or cells: E. coli BL21 (DE3) pLysS
T1 sequence (P04995 whole entry): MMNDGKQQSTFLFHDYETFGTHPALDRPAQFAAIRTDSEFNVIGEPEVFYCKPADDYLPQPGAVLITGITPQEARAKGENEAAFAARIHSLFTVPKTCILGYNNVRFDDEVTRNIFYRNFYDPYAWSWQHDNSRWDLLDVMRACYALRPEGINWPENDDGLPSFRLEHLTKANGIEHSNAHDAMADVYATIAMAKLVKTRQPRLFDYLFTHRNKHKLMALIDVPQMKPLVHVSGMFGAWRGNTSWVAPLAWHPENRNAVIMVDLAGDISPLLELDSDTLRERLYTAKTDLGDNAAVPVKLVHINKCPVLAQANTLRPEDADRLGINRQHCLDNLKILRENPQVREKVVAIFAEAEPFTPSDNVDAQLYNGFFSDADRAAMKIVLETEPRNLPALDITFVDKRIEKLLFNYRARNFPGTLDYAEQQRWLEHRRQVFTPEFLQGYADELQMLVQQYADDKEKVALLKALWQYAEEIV
Procedure: (§1) Triplicate measurements were performed using a Clariostar Plus Microplate Reader in 384-well plates for all fluorescence anisotropy (FA) experiments. The settings were 25 °C, excitation at 485 nm, emission at 510 nm, settling time of 0.2 s, and 200 flashes per well.
(§2) Competition fluorescence anisotropy experiments were carried out as follows: protein (0.5 μM either ExoI or RecO) was incubated with 50 nM F-wtSSB peptide and 0–500 μM unlabeled wtSSB (or a variant) peptide for 30 min at room temperature. For direct fluorescence anisotropy measurements, 16 µM ExoI and 7.5 µM RecO were used in the first well. After serial dilution, either 50 nM of F-mSSB or F-sSSB was added to the wells and then incubated for 30 min. Buffers used included 20 mM Tris-HCl (pH 8.0), 100 mM NaCl, 1 mM MgCl2, 1 mM 2-mercaptoethanol, 10% (v/v) glycerol, for ExoI and 20 mM Tris-HCl (pH 8.0), 200 mM NaCl, 1 mM 2-mercaptoethanol, 10% (v/v) glycerol, and 0.01% Triton-X 100 for RecO [37].
(§3) Fluorescence anisotropy values were normalized and are shown as bound fractions (BF, %). BF=r−rmin/λ(rmax−r)+r−rmin, I=2∗PG+S, r=S−PG/I, where r: anisotropy, I: total intensity, P: perpendicular intensity, S: parallel intensity, G: an instrument factor set to 1, BF: ligand fraction bound, and λ=λbound/λunbound=1 .
(§4) Competitive fluorescence anisotropy was analyzed in Origin Pro 9.5, and IC50 values were determined using the Logistic Nonlinear fit function and are shown as plots for each mutated position for each protein in Figures S4 and S6. EC50 values from direct fluorescence anisotropy titrations were plotted in Origin 9.5. Values were determined using the Logistics Nonlinear fit function.

ExoI [2] = biological target: T1, ExoI; assay: Isothermal titration calorimetry with ExoI; assay type: binding, E. coli
Procedure: Isothermal titration calorimetry (ITC) experiments were performed using a MicroCal VP-ITC titration microcalorimeter. ExoI was dialyzed extensively against the indicated buffer and cleared through centrifugation at 14,000 rpm for 15 min at 4 °C. RecO was subjected to a quick buffer exchange using an Amicon Ultra ultrafiltration device (Sigma). Protein concentrations were determined after the buffer exchange procedure.
The raw data were integrated using NITPIC [39]. The binding parameters, association equilibrium constant (KA), binding enthalpy (ΔH), and binding entropy (ΔS) were obtained by fitting the titration curves to a model of A + B = C in SEDPHAT [40]. Stoichiometry was fixed to 1:1 and the incompetent fraction was fitted for the protein concentration.

RecO = biological target: T2, RecO (Escherichia coli, UniProt P0A7H3); assay: biochemical; assay type: binding; conditions: 0.5 μM RecO, 50 nM F-wtSSB tracer, 0–500 μM unlabeled peptide, 30 min room temperature; 20 mM Tris-HCl pH 8.0, 200 mM NaCl, 10% glycerol, 0.01% Triton-X 100; 25 °C; triplicate; read-out: IC50 on RecO, competitive fluorescence anisotropy
T2 construct: His-tag (TEV site) (N, cleaved yes); made in house; host or cells: E. coli Rosetta cells
T2 sequence (P0A7H3 whole entry): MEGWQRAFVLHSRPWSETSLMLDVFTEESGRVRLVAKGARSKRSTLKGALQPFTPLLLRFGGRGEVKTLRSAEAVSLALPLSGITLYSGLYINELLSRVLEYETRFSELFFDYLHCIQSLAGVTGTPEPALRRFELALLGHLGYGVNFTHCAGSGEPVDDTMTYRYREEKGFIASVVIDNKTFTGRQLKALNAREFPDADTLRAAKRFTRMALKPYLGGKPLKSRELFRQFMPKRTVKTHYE
Procedure: as §1, §2, §3, §4

Q: `CC[C@H](C)[C@H](NC(=O)[C@H](CC(=O)O)NC(=O)[C@H](CC(=O)O)NC(=O)[C@H](CC(=O)O)NC(=O)[C@H](Cc1ccc(C(F)(F)F)cc1)NC(=O)[C@H](CC(=O)O)NC(C)=O)C(=O)N1CCC[C@H]1C(=O)N[C@@H](Cc1ccc(C(F)(F)F)cc1)C(=O)O` [E2-sSSB-Ct] (Ac-D[Phe(4-CF3)]DDDIP[Phe(4-CF3)]-OH) was tested. Which IC50 (ExoI [1]) did it give?
A: 0.35 µM

Q: What about the Kd (ExoI [2]) of the same molecule?
A: 0.04 µM

Q: With `CC[C@H](C)[C@H](NC(=O)[C@H](CC(=O)O)NC(=O)[C@H](CC(=O)O)NC(=O)[C@H](CC(=O)O)NC(=O)[C@H](Cc1ccccc1)NC(=O)[C@H](CC(=O)O)NC(C)=O)C(=O)N1CCC[C@H]1C(=O)N[C@@H](Cc1cccs1)C(=O)O` [Thi8] (Ac-DFDDDIP[2Thi]-OH) as the molecule, how does the IC50 (RecO) read?
A: 8.59 ± 7.26 µM

Q: And the IC50 (ExoI [1])?
A: 7.72 ± 0.51 µM

Q: With `CC[C@H](C)[C@H](NC(=O)[C@H](CC(=O)O)NC(=O)[C@H](CC(=O)O)NC(=O)[C@H](CC(=O)O)NC(=O)[C@@H]1Cc2ccccc2CN1C(=O)[C@H](CC(=O)O)NC(C)=O)C(=O)N1CCC[C@H]1C(=O)N[C@@H](Cc1ccccc1)C(=O)O` [Tic2] (Ac-D[Tic]DDDIPF-OH) as the molecule, how does the IC50 (RecO) read?
A: 3.99 ± 0.1 µM

Q: What about the IC50 (ExoI [1]) of the same molecule?
A: 6.6 ± 0.55 µM

Q: For `CC[C@H](C)[C@H](NC(=O)[C@H](CC(=O)O)NC(=O)[C@H](CC(=O)O)NC(=O)[C@H](CC(=O)O)NC(=O)[C@H](Cc1ccccc1)NC(=O)[C@H](CC(=O)O)NC(C)=O)C(=O)N1CCC[C@H]1C(=O)N1Cc2ccccc2C[C@H]1C(=O)O` [Tic8] (Ac-DFDDDIP[Tic]-OH), which IC50 (RecO) is on record?
A: 141 ± 8.37 µM

Q: And the IC50 (ExoI [1])?
A: 96.1 ± 83.8 µM

Q: What does the source list for `CC(=O)N[C@@H](CC(=O)O)C(=O)N[C@@H](Cc1ccccc1)C(=O)N[C@@H](CC(=O)O)C(=O)N[C@@H](CC(=O)O)C(=O)N[C@@H](CC(=O)O)C(=O)N[C@H](C(=O)N1CCC[C@H]1C(=O)N[C@@H](Cc1ccccc1)C(=O)O)C(C)(C)C` [tBuGly6] (Ac-DFDDD[Tle]PF-OH)?
A: IC50 (RecO): 10.4 ± 1.02 µM; IC50 (ExoI [1]): 2.87 ± 0.26 µM

Q: What does the source list for `CC[C@H](C)[C@H](NC(=O)[C@H](CC(=O)O)NC(=O)[C@H](CC(=O)O)NC(=O)[C@H](CC(=O)O)NC(=O)[C@H](Cc1ccccc1)NC(=O)C[C@H](CC(=O)O)NC(C)=O)C(=O)N1CCC[C@H]1C(=O)N[C@@H](Cc1ccccc1)C(=O)O` [β3-Asp1] (Ac-[β3hD]FDDDIPF-OH)?
A: IC50 (RecO): 8.03 ± 0.4 µM; IC50 (ExoI [1]): 4.47 ± 0.25 µM

Q: For `CC[C@H](C)[C@H](NC(=O)[C@H](CC(=O)O)NC(=O)[C@H](CC(=O)O)NC(=O)C[C@H](CC(=O)O)NC(=O)[C@H](Cc1ccccc1)NC(=O)[C@H](CC(=O)O)NC(C)=O)C(=O)N1CCC[C@H]1C(=O)N[C@@H](Cc1ccccc1)C(=O)O` [β3-Asp3] (Ac-DF[β3hD]DDIPF-OH), which IC50 (RecO) is on record?
A: 8.92 ± 0.39 µM

Q: And the IC50 (ExoI [1])?
A: 3.65 ± 0.16 µM

Q: `CC[C@H](C)[C@H](NC(=O)[C@H](CC(=O)O)NC(=O)C[C@H](CC(=O)O)NC(=O)[C@H](CC(=O)O)NC(=O)[C@H](Cc1ccccc1)NC(=O)[C@H](CC(=O)O)NC(C)=O)C(=O)N1CCC[C@H]1C(=O)N[C@@H](Cc1ccccc1)C(=O)O` [β3-Asp4] (Ac-DFD[β3hD]DIPF-OH) was tested. Which IC50 (RecO) did it give?
A: 19.6 ± 2.78 µM

Q: And the IC50 (ExoI [1])?
A: 1.54 ± 0.13 µM

Q: Which results are given for `CC[C@H](C)[C@H](NC(=O)C[C@H](CC(=O)O)NC(=O)[C@H](CC(=O)O)NC(=O)[C@H](CC(=O)O)NC(=O)[C@H](Cc1ccccc1)NC(=O)[C@H](CC(=O)O)NC(C)=O)C(=O)N1CCC[C@H]1C(=O)N[C@@H](Cc1ccccc1)C(=O)O` [β3-Asp5] (Ac-DFDD[β3hD]IPF-OH)?
A: IC50 (RecO): 5.91 ± 0.68 µM; IC50 (ExoI [1]): 13.9 ± 6.11 µM

Q: What does the source list for `CC[C@H](C)[C@@H](CC(=O)N1CCC[C@H]1C(=O)N[C@@H](Cc1ccccc1)C(=O)O)NC(=O)[C@H](CC(=O)O)NC(=O)[C@H](CC(=O)O)NC(=O)[C@H](CC(=O)O)NC(=O)[C@H](Cc1ccccc1)NC(=O)[C@H](CC(=O)O)NC(C)=O` [β3-Ile6] (Ac-DFDDD[β3hI]PF-OH)?
A: IC50 (RecO): 19.2 ± 7.47 µM; IC50 (ExoI [1]): 11.28 ± 0.03 µM

Q: What does the source list for `CC[C@H](C)[C@H](NC(=O)[C@H](CC(=O)O)NC(=O)[C@H](CC(=O)O)NC(=O)[C@H](CC(=O)O)NC(=O)C[C@H](Cc1ccccc1)NC(=O)[C@H](CC(=O)O)NC(C)=O)C(=O)N1CCC[C@H]1C(=O)N[C@@H](Cc1ccccc1)C(=O)O` [β3-Phe2] (Ac-D[β3hF]DDDIPF-OH)?
A: IC50 (RecO): 3.66 ± 0.61 µM; IC50 (ExoI [1]): 3.8 ± 0.11 µM

Q: Which results are given for Ac-DFDDNIPF [Asn5]?
A: IC50 (RecO): 16 ± 0.51 µM; IC50 (ExoI [1]): 7.92 ± 0.62 µM
